Article PMC6270821, “ROS-Mediated Cytotoxic Effect of Copper(II) Hydrazone Complexes against Human Glioma Cells” (Molecules, 2014)

Key:
MRC5 cells = assay: ROS generation, DCFH-DA assay, MRC5 cells; type: cell-based, human; conditions: 1 × 10^−5 mol/L, 24 h
From the text: (§1) To examine the effects of H2AcMe, H2BzMe and their complexes 1 and 2 on the generation of free radicals (reactive oxygen species, ROS), we used the 2',7'-dichlorodihydrofluorescein diacetate (DCFH-DA) assay.
(§2) ROS accumulation was detected using dichlorodihydrofluorescein diacetate (DCFH-DA, Sigma). DCFH-DA is a non-fluorescent compound, that when it is taken up by passive diffusion into the cells, is hydrolyzed by esterases to yield non-permeable DCFH. In the presence of ROS, DCFH is oxidized to the fluorescent DCF. Tumor cells were treated with the compounds for 24 h and were then incubated with DCFH-DA (1 × 10^−5 mol·L^−1) for 30 min at 37 °C. Following incubation, the cells were washed twice with PBS. Thereafter, the cells were observed under the fluorescent microscope Zeiss Axionplan coupled with a digital camera at excitation and emission wavelengths of 488 and 525 nm, respectively. Data were analyzed using ImageJ (ImageJ, National Institute of Health, Bethesda, MD, USA) and expressed as percentages of DCFDA fluorescence of the corresponding control.

U87 cells = assay: ROS generation, DCFH-DA assay, U87 cells; type: cell-based, human; conditions: 1 × 10^−5 mol/L, 24 h
From the text: as §1, §2

Row | Compound | ROS levels in MRC5 cells compared with glioma cells (MRC5 cells) | ROS levels in U87 cells compared with T98 cells (U87 cells)
1 | CC(=O)NN=C(C)c1ccccn1.[Cl][Cu][Cl] [compound 1, [dichloro(2-acetylpyridineacetyl-hydrazone)copper(II)]] | lower levels of ROS in MRC5 cells | higher levels of ROS in U87 cells
2 | CC(=O)NN=C(c1ccccc1)c1ccccn1.[Cl][Cu][Cl] [compound 2, [dichloro(2-benzoylpyridineacetylhydrazone)copper(II)]] | lower levels of ROS in MRC5 than in T98 glioma cells | equally effective in both cell lineages
